Data taken from article PMC7111291 (European Journal of Medicinal Chemistry, 2020).
Read-outs that look alike come from different tables or passages of the source.

Tests used:
[1] = system: wild type HIV-1 (VSVG/HIV-1wt); experiment: microbe, parasite or virus in culture; type: cell-based; settings: for EC50: read-out: EC50±SD
HEK 293T cells = type: cell-based, human; settings: read-out: CC50±SD, 48 h
VSVG/HIV-1RT-K103N = type: cell-based
VSVG/HIV-1RT-Y181C = type: cell-based
VSVG/HIV-1RT-Y188L = type: cell-based; settings: for EC50: read-out: EC50±SD
VSVG/HIV-1RT-K103N,G190A = type: cell-based
VSVG/HIV-1RT-K103N,V108I = type: cell-based
HIV-1 RT Ribonuclease H = HIV-1 RT Ribonuclease H (Human immunodeficiency virus type 1 group M subtype B, UniProt P04585); experiment: Ribonuclease H activity detection; type: biochemical
[2] = Human immunodeficiency virus 1, HEK-293T

Structure (SMILES) | EC50 [1] [nM] | EC50 [1, 2] [nM] | IC50 (HIV-1 RT Ribonuclease H) [nM] | further results
CCCOn1cc(C(O)C(=O)Nc2ccncc2Cl)c2ccccc21 (stereo not shown) [Compound 15, N-(3-Chloropyridin-4-yl)-2-hydroxy-2-(1-propoxy-1H-indol-3-yl)acetamide] | 2010 ± 60 | – | – | CC50 (HEK 293T cells): 19000 ± 2310 nM
O=C1Nc2ccc(Cl)cc2[C@@](C#CC2CC2)(C(F)(F)F)O1 [EFV, efavirenz] | 1 | 0.7 ± 0.2 | – | Mean change (fold) in EC50 compared to wild type (VSVG/HIV-1RT-K103N): 0.03 ± 0.003 (27.0) fold; Mean change (fold) in EC50 compared to wild type (VSVG/HIV-1RT-Y181C): 0.002 ± 0.0001 (1.7) fold; Mean change (fold) in EC50 compared to wild type (VSVG/HIV-1RT-Y188L): 0.12 ± 0.03 (124.3) fold; Mean change (fold) in EC50 compared to wild type (VSVG/HIV-1RT-K103N,G190A): 0.18 ± 0.01 (183.0) fold; Mean change (fold) in EC50 compared to wild type (VSVG/HIV-1RT-K103N,V108I): 0.06 ± 0.01 (55.5) fold
Cc1ccnc2c1NC(=O)c1cccnc1N2C1CC1 [NVP, nevirapine, reference compound] | 20 | 30 ± 3 | – | EC50 (VSVG/HIV-1RT-Y188L): > 100000 nM
CCCOn1cc(CC(=O)Nc2ccncc2Cl)c2ccccc21 [Compound 10f, N-(3-Chloropyridin-4-yl)-2-(1-propoxy-1H-indol-3-yl)acetamide] | 70 | – | > 100000 | –
CCCCOn1cc(CC(=O)Nc2ccncc2Cl)c2ccccc21 [Compound 10i, 2-(1-Butoxy-1H-indol-3-yl)-N-(3-chloropyridin-4-yl)acetamide] | – | 60 ± 0.5 | > 100000 | –
CCCOn1cc(C(=O)C(=O)Nc2ccncc2Cl)c2ccccc21 [Compound 14, N-(3-Chloropyridin-4-yl)-2-oxo-2-(1-propoxy-1H-indol-3-yl)acetamide] | > 10000 | – | – | infectivity when treated with the compound (percentage in parentheses) [1]: >10; (131.6 ± 0.60%); CC50 (HEK 293T cells): 20900 ± 5110 nM
CCCOn1cc(CC(=O)Nc2ccccc2Cl)c2ccccc21 [Compound 6d, N-(2-Chlorophenyl)-2-(1-propoxy-1H-indol-3-yl)acetamide] | 490 | – | > 100000 | EC50 (VSVG/HIV-1RT-Y188L): > 10000 nM
